In patent US20150209379A1, “TREATMENT OF PROSTATE CANCER AND HEMATOLOGIC NEOPLASMS” (THOMAS JEFFERSON UNIVERSITY, priority 2012, published 2015):

Columns and labels:
[1] = test system: CWR22Rv1 prostate cancer cells; test: Cell viability, MTS assay, CWR22Rv1 prostate cancer cells; assay type: cell-based, human; conditions: CWR22Rv1, 72 h, 3.1, 6.3, 12.5, 25 and 50 μM, vs control compound C5
Description: (§1) Exponentially growing CWR22Rvl prostate cancer cells were treated with Compound 1, Compound 2 or the control compound C5 for 72 h at 3.1, 6.3. 12.5, 25 and 50 μM concentrations. The cell viability was assessed by MTS (3-(4,5-dimethylthiazolyl-2)-2,5-diphenyl-tetrazolium bromide) metabolic activity assay (CellTiter 96® AQueous Assay kit).
as §1, with “CWR22Rv1” for “CWR22Rvl”, “cancer cells, K562 leukemia cells and imatinib-sensitive KCL22S and imatinib-resistant KCL22R chronic myeloid leukemia” for “cancer”, “NBPP” for “Compound 1, Compound 2”
as §1, with “N6BA” for “Compound 1, Compound 2”

[2] = test system: K562 human chronic myeloid leukemia cells; test: Cell viability, MTS assay, K562 chronic myeloid leukemia cells; assay type: cell-based; conditions: K562, 72 h, 3.1, 6.3, 12.5, 25 and 50 μM, vs control compound C5
Description: as §1, with “K562 human chronic myeloid leukemia” for “CWR22Rvl prostate cancer”
as §1, with “CWR22Rv1” for “CWR22Rvl”, “cancer cells, K562 leukemia cells and imatinib-sensitive KCL22S and imatinib-resistant KCL22R chronic myeloid leukemia” for “cancer”, “NBPP” for “Compound 1, Compound 2”

Compound | number of viable cells [1] | number of viable cells [2]
OC[C@H]1O[C@@H](n2cnc3c(N4CCc5ccccc5C4)ncnc32)[C@H](O)[C@@H]1O [Compound 1, (2R,3R,4S,5R)-2-(6-(3,4-Dihydroisoquinolin-2(1H)-yl)-9H-purin-9-yl)-5-(hydroxymethyl)tetrahydrofuran-3,4-diol] | decreased the number of viable prostate cancer cells compared to the control compound | decreased the number of viable leukemic cells compared to the control compound
OC[C@H]1O[C@@H](n2cnc3c(NNc4ccccc4)ncnc32)[C@H](O)[C@@H]1O [Compound 2, (2R,3S,4R,5R)-2-(hydroxymethyl)-5-(6-(2-phenylhydrazinyl)-9H-purin-9-yl)tetrahydrofuran-3,4-diol] | decreased the number of viable prostate cancer cells compared to the control compound | decreased the number of viable leukemic cells compared to the control compound
OC[C@H]1O[C@@H](n2cnc3c(NCc4ccccc4)ncnc32)[C@H](O)[C@@H]1O [Compound N6BA, N^6-benzyladenosine] | decreased the number of viable prostate cancer cells | 
OC[C@H]1O[C@@H](n2ccc3c(NCc4ccccc4)ncnc32)[C@H](O)[C@@H]1O [NBPP, N-(phenylmethyl)-7-β-D-ribofuranosyl-7H-pyrrolo[2,3-d]pyrimidin-4-amine] | decreased the number of viable prostate cancer cells | decreased the number of viable K562 cells
